Assay results from patent US10738057B2, “Tertiary alcohols as PI3K-γ inhibitors” (Incyte Corporation, priority 2017, dated 2020).
Counter-ions that a name gives are not always drawn. Like-named read-outs stand apart in the source and are kept apart here.

Columns and labels:
[1] = biological target: PI3Kγ (p110γ) Recombinant Human Protein (Homo sapiens (Human), UniProt P48736); test: PI3K-γ scintillation proximity assay; type: biochemical; conditions: 20 μM PIP2, 2 μM ATP, 13 nM PI3Kγ, 120 min, room temperature
PI3Kγ (p110γ) Recombinant Human Protein, sequence (P48736 whole entry): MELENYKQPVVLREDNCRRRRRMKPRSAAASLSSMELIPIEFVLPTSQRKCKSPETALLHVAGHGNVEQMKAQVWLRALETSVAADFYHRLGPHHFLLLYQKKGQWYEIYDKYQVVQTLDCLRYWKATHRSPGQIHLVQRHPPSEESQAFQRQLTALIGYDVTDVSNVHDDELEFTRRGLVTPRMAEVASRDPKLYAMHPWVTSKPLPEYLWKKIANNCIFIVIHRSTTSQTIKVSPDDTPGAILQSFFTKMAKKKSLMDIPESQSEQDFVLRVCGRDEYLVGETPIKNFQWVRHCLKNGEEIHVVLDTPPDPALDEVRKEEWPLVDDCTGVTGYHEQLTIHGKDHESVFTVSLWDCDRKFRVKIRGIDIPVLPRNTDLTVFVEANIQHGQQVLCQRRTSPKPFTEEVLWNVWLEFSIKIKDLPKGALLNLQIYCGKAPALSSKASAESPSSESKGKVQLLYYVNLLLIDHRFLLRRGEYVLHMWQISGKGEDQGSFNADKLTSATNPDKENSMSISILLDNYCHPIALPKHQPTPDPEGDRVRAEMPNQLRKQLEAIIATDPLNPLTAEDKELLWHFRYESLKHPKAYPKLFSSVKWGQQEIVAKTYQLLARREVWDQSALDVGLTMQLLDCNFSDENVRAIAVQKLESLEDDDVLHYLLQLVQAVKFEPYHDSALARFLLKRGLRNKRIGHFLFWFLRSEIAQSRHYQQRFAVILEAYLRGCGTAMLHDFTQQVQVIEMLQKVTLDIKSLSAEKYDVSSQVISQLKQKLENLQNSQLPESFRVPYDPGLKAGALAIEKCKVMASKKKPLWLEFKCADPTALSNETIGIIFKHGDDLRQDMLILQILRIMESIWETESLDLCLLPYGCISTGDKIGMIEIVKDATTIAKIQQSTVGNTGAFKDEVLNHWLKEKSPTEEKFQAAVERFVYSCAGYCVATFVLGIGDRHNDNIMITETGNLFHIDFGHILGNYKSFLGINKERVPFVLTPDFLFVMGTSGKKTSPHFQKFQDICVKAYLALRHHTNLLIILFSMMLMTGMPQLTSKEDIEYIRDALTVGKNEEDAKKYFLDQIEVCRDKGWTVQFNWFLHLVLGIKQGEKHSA
Outline: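 Radiometric SPA in 20 mM MOPS pH 6.7, 10 mM MgCl2, 5 mM DTT, 0.03% CHAPS, 2% DMSO. Stopped with EDTA and WGA SPA beads for scintillation counting. IC50 fitted from % solvent-control activity versus log concentration.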

[2] = biological target: PI3Kδ (p110δ/p85α) Recombinant Human Protein (Homo sapiens (Human), UniProt O00329); test: PI3Kδ scintillation proximity assay; type: biochemical; conditions: 20 μM PIP2, 2 μM ATP, 3.4 nM PI3Kδ, 120 min, room temperature; read-out: PI3Kδ IC50
PI3Kδ (p110δ/p85α) Recombinant Human Protein, sequence (O00329 whole entry): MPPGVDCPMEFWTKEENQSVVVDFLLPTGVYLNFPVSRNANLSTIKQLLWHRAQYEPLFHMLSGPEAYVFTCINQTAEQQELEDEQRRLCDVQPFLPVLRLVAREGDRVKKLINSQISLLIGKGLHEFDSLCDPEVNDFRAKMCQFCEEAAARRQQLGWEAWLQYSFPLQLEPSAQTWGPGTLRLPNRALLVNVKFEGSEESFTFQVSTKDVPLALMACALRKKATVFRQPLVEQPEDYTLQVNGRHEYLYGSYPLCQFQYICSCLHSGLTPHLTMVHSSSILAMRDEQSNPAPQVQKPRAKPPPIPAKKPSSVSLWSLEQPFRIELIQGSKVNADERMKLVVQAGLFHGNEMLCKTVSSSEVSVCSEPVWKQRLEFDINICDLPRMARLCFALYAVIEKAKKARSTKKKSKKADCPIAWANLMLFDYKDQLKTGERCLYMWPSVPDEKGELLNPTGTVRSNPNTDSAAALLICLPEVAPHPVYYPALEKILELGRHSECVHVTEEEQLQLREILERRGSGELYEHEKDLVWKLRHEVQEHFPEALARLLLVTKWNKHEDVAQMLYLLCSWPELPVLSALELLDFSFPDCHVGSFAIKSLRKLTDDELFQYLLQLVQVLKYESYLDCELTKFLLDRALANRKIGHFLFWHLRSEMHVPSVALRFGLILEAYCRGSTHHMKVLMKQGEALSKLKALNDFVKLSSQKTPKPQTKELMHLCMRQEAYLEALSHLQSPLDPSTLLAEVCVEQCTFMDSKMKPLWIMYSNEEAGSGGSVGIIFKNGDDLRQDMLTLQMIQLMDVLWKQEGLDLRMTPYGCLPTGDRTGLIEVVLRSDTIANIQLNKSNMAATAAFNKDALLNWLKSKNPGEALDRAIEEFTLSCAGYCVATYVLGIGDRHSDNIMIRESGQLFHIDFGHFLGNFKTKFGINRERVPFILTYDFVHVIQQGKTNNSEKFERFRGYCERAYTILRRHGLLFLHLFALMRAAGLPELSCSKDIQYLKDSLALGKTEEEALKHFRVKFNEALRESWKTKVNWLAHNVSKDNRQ
PI3Kδ (p110δ/p85α) Recombinant Human Protein, sequence (P27986 whole entry partner): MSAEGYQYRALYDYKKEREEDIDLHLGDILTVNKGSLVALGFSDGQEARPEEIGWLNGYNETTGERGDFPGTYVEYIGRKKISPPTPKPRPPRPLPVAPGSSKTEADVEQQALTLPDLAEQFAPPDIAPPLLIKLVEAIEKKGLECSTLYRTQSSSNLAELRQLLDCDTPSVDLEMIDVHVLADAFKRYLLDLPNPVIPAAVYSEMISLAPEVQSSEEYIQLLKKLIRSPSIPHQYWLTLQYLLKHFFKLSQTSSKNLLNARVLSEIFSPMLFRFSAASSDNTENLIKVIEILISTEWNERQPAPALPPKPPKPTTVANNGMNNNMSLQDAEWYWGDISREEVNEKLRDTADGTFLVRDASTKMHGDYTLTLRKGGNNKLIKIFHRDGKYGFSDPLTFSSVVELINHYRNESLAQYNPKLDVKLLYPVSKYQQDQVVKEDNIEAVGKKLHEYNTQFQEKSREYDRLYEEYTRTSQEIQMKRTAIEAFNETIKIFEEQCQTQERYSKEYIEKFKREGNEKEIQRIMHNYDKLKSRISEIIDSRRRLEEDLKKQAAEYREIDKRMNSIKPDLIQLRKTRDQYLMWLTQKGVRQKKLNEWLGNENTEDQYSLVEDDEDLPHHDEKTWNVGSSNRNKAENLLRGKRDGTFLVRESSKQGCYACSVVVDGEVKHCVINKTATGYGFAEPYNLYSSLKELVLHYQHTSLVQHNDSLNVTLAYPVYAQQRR
Outline: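 Recombinant human p110δ/p85α was run at room temperature in 20 mM MOPS pH 6.7, 10 mM MgCl2, 5 mM DTT, 0.03% CHAPS, 2% DMSO. Substrates were 20 µM PIP2 and 2 µM ATP with [γ-33P]ATP. Product was captured overnight on WGA SPA beads and counted by scintillation; IC50 fitted from percent of solvent control versus log concentration.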

[3] = tested on: Phosphorylated Ribosomal Protein S6 (RPS6) in THP-1 cells; test: THP-1 RPS6 ELISA assay; type: cell-based, Human; conditions: Homo sapiens, serum starved, 2 h compound, 10 nM MCP-1 for 15 min, phospho-RPS6 ELISA, read-out: PI3Kγ_THP1_RPS6_ELISA IC50
Outline: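 Phospho-RPS6 in lysates measured by ELISA at 450 nm, corrected at 540 nm, after MCP-1 challenge (10 nM, 15 min) of THP-1 cells that were starved overnight and exposed to test compound for 2 h at 37° C, 2×10^5 cells/well. Curve fit of percent inhibition gives IC50.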

Row | IC50 [1] [nM] | IC50 [2] [nM] | IC50 ([3]; THP-1, THP-1 cells) [nM] | Structure (SMILES) | IC50 ([3]; THP-1 cells) [nM]
1 | < 100 | 100 to 500 | > 1000 | CNC(=O)C(C)(C)C(O)(c1ccc(C)c(-c2cnc3c(N)nc(C(F)(F)F)cn23)c1)C(F)(F)F (stereo not drawn) [Example 262, 3-(3-(8-Amino-6-(trifluoromethyl)imidazo[1,2-a]pyrazin-3-yl)-4-methylphenyl)-4,4,4-trifluoro-3-hydroxy-N,2,2-trimethylbutanamide] | –
2 | < 100 | < 100 | < 100 | Cc1ccc(C(O)(C(F)(F)F)C(F)(F)F)cc1-c1cnc2c(N)nc(-c3ccnn3C)cn12 [Example 264, 2-(3-(8-Amino-6-(1-methyl-1H-pyrazol-5-yl)imidazo[1,2-a]pyrazin-3-yl)-4-methylphenyl)-1,1,1,3,3,3-hexafluoropropan-2-ol] | –
3 | < 100 | < 100 | < 100 | [2H]C([2H])([2H])c1ccc(C(C)(O)C(F)(F)F)cc1-c1cnc2c(N)nc(-c3ccc(C(C)O)nc3)cn12 (stereo not drawn) [Example 267, 2-(3-(8-Amino-6-(6-(1-hydroxyethyl)pyridin-3-yl)imidazo[1,2-a]pyrazin-3-yl)-4-(methyl-d3)phenyl)-1,1,1-trifluoropropan-2-ol] | –
4 | < 100 | 100 to 500 | 100 to 500 | Cc1ccc(C(C)(O)C(F)(F)Cl)cc1-c1cnc2c(N)nc(C(F)(F)F)cn12 (stereo not drawn) [Example 268, 2-(3-(8-Amino-6-(trifluoromethyl)imidazo[1,2-a]pyrazin-3-yl)-4-methylphenyl)-1-chloro-1,1-difluoropropan-2-ol] | –
5 | < 100 | 100 to 500 | 100 to 500 | Cc1ccc(C(C)(O)C(F)(F)F)cc1-c1cnc2c(N)nc(C(=O)NC34CC(C#N)(C3)C4)cn12 (stereo not drawn) [Example 278, 8-Amino-N-(3-cyanobicyclo[1.1.1]pentan-1-yl)-3-(2-methyl-5-(1,1,1-trifluoro-2-hydroxypropan-2-yl)phenyl)imidazo[1,2-a]pyrazine-6-carboxamide trifluoroacetate salt] | –
6 | < 100 | < 100 | > 1000 | Cc1ccc(C(C)(O)C(F)(F)F)cc1-c1cnc2c(N)nc(C(=O)NCC3(C#N)CCC3)cn12 (stereo not drawn) [Example 283, 8-Amino-N-((1-cyanocyclobutyl)methyl)-3-(2-methyl-5-(1,1,1-trifluoro-2-hydroxypropan-2-yl)phenyl)imidazo[1,2-a]pyrazine-6-carboxamide trifluoroacetate salt] | –
7 | < 100 | 100 to 500 | < 100 | Cc1ccc(C(O)(C(N)=O)C(F)(F)F)cc1-c1cnc2c(N)nc(C(=O)NCC(C)(C)O)cn12 (stereo not drawn) [Example 284, 8-Amino-3-(5-(3-amino-1,1,1-trifluoro-2-hydroxy-3-oxopropan-2-yl)-2-methylphenyl)-N-(2-hydroxy-2-methylpropyl)imidazo[1,2-a]pyrazine-6-carboxamide] | –
8 | < 100 | 500 to 2000 | 100 to 500 | Cc1ccc(C(O)(C(N)=O)C(F)(F)F)cc1-c1cnc2c(N)nc(C(=O)NC3CCOCC3)cn12 (stereo not drawn) [Example 285, 8-Amino-3-(5-(3-amino-1,1,1-trifluoro-2-hydroxy-3-oxopropan-2-yl)-2-methylphenyl)-N-(tetrahydro-2H-pyran-4-yl)imidazo[1,2-a]pyrazine-6-carboxamide] | –
9 | < 100 | 100 to 500 | < 100 | Cc1ccc(C(O)(C(N)=O)C(F)(F)F)cc1-c1cnc2c(N)nc(C(=O)NC34CC(F)(C3)C4)cn12 (stereo not drawn) [Example 288, 8-Amino-3-(5-(3-amino-1,1,1-trifluoro-2-hydroxy-3-oxopropan-2-yl)-2-methylphenyl)-N-(3-fluorobicyclo[1.1.1]pentan-1-yl)imidazo[1,2-a]pyrazine-6-carboxamide trifluoroacetate salt] | –
10 | < 100 | 100 to 500 | < 100 | [2H]C([2H])([2H])NC(=O)C(O)(c1ccc(C)c(-c2cnc3c(N)nc(C(=O)NC(CC#N)C(F)(F)F)cn23)c1)C(F)(F)F (stereo not drawn) [Example 289, 8-Amino-N-(3-cyano-1,1,1-trifluoropropan-2-yl)-3-(2-methyl-5-(1,1,1-trifluoro-2-hydroxy-3-((methyl-d3)amino)-3-oxopropan-2-yl)phenyl)imidazo[1,2-a]pyrazine-6-carboxamide trifluoroacetate salt] | –

Row | Structure (SMILES) | IC50 [1] [nM] | IC50 [2] [nM] | IC50 ([3]; THP-1, THP-1 cells) [nM] | IC50 ([3]; THP-1 cells) [nM]
11 | Cc1ccc(C(O)(CNC(=O)CF)C(F)(F)F)cc1-c1cnc2c(N)nc(C(F)(F)F)cn12 (stereo not drawn) [Example 214, N-(2-(3-(8-amino-6-(trifluoromethyl)imidazo[1,2-a]pyrazin-3-yl)-4-methylphenyl)-3,3,3-trifluoro-2-hydroxypropyl)-2-fluoroacetamide trifluoroacetate salt] | < 100 | 100 to 500 | – | 100 to 500
